Reference: US8278267B2 (Amylin Pharmaceuticals, LLC, priority 2005, dated 2012)

Experiments:
[1] = e.g., provoking marked hyperlactemia followed by hyperglycemia; cited from earlier work
[2] = cited from earlier work
[3] = Combination therapy amylin + sibutramine in DIO prone rats; type: in vivo, rat; details: two weeks; for change in body weight (vehicle-corrected): amylin 100 μg/kg/day and/or sibutramine 3 mg/kg/day by mini-pumps; for fat mass / lean (protein) mass: amylin 100 μg/kg/day and/or sibutramine 3 mg/kg/day
Description: In-bred DIO prone rats were obtained from Charles Rivers Labs. These rats were developed from a line of Crl:CD®(SD)BR rats that are prone to become obese on a diet relatively high in fat and energy (Levin, 1997). The rats were housed individually in shoebox cages at 22° C. in a 12/12-hour light dark cycle. […] At the end of the fattening period they typically have a mean body weight of 500 g. Rats were then divided into treatment groups and implanted with two subcutaneous mini-pumps (Durect Corp).

[4] = Effect of amylin on body composition in DIO prone rats, 14 days of treatment then washout; type: in vivo, rat
Description: Diet-induced obesity (DIO) in the in the Sprague-Dawley rat is a valuable model for the study of obesity and regulation of energy homeostasis. […] All rats were housed individually in shoebox cages at 22° C. in a 12/12-hour light dark cycle. Amylin was administered by subcutaneous osmotic mini-pump (Durect Corp, Calif.). […] On day 14, mini-pumps were removed and replaced with pumps containing vehicle. For body composition, rats were scanned in a specialized rodent NMR machine (Echo Medical Systems) prior to drug treatment, and at the conclusion of the experiment, which enabled the calculation of percent changes in fat and lean composition (e.g., % body fat after treatment−% body fat at baseline=change in % body fat).

[5] = Effect of amylin on high fat food preference, 11-week osmotic pump treatment; type: in vivo, rat
Description: The ability of amylin to modify food preference was examined in an animal model. […] Animals had access to both low fat chow (6% fat kcal, 54% cornstarch kcal; #7012, Harlan Teklad, Madison, Wis.) and high fat chow (“palatable chow”) (58% fat kcal and 26% sucrose kcal; #D12311, Research Diets, New Brunswick, N.J.). Food intake and body weight were measured weekly. Just prior to treatment, and at the end of treatment, the amount of fat and lean tissue (expressed as g of tissue per 100 g of body weight) was measured via MRI (Echo MRI for rats, EchoMRI, Houston, Tex.).
Energy expenditure was assessed using an Oxymax animal monitoring system (Columbus Instruments, Columbus, Ohio) to measure oxygen consumption and carbon dioxide generation over time. From these measurements, heat (in kcal) was calculated and energy expenditure assessed.

[6] = Effect of amylin on sucrose food preference, sugar withdrawal and restraint stress; type: in vivo, rat
Description: The ability of amylin to modify food preference was examined in an animal model. Male, Sprague-Dawley® rats were submitted to a sugar withdrawal paradigm and observed for effects of stress on sugar intake. […] All rats were provided with ad libitum access to standard chow, water, and a 30% sucrose drink. Subsequently, the sucrose drink was removed and half of the rats were subjected, daily, to 3 h of mild restraint stress for 3 successive days. After 3 days, sucrose was provided and its daily average consumption was measured over 4 days. Chow intake was also measured over the 3 days of withdrawal and stress and over the following 4 days when sucrose was re-introduced. No restraint was applied during the 4 days of sucrose re-introduction. Results of this assay are shown in FIG. 1(A-D) where * is P<0.05 by ANOVA and Fisher LSD post-hoc analyses.

[7] = day 28, after amylin days 1-14 and vehicle days 15-28
[8] = rat amylin 100 μg/kg/d s.c. mini-pump, days 2-14, vs vehicle controls
[9] = at 11 weeks, compared to controls

des-^1Lys-h-amylin (CNTATCATQRLANFLVHSSNNFGAILSSTNVGSNTY)
amylin activity in vivo [1]: show amylin activity in vivo

^25Pro^26Val^28,29Pro-h-amylin (KCNTATCATQRLANFLVHSSNNFGPVLPPTNVGSNTY)
solubility and stability characteristics compared to human amylin [2]: more desirable solubility and stability characteristics

^18Arg^25,28Pro-h-amylin (KCNTATCATQRLANFLVRSSNNFGPILPSTNVGSNTY)
solubility and stability characteristics compared to human amylin [2]: more desirable solubility and stability characteristics
amylin activity in vivo [1]: show amylin activity in vivo

Rat amylin
change in body weight (vehicle-corrected) [3]: approximately 5%
fat mass [3]: Fat mass loss was also evident
lean (protein) mass [3]: increased
percent of body fat [4, 7]: lower percent of body fat
percent of lean body mass [4, 7]: higher percent of lean body mass
body weight [4, 8]: significantly decreased
cumulative food intake [4, 8]: significantly decreased
24 h energy expenditure, dark phase increase [5, 9]: 6.6%
24 h energy expenditure, light phase increase [5, 9]: 9.7%
fat mass, change in percent of total mass ([5]; pre- vs post-treatment, MRI, vehicle 3.7±0.9): −3.6±1.0%
lean tissue, change in percent of total mass ([5]; pre- vs post-treatment, MRI, vehicle −0.53±0.21, not significant): 0.08±0.23%
percent total calories from low fat chow (main effect) ([5]; rat amylin 300 μg/kg/d, 11 weeks, vehicle 4.3±0.6): 12.2±3.2%
body weight gain ([5]; rat amylin 300 μg/kg/d, 11 weeks, vehicle 126±10): 50 ± 11 g
calories from low fat chow (main effect) ([5]; rat amylin 300 μg/kg/d, 11 weeks, vehicle 271±42): 633 ± 145 kcal
calories from high fat chow over 11 weeks (FIG. 2) ([5]; rat amylin 300 μg/kg/d, 11 weeks, vehicle 6315±111, mean±SEM): 5309 ± 202 kcal
average sucrose to chow consumption ratio (as % of baseline) ([6]; rat amylin 300 μg/kg/d by osmotic pump, restraint-stressed rats, 4 days of sucrose re-introduction): prevents the increase in the average sucrose to chow consumption ratio
sucrose intake ([6]; rat amylin 300 μg/kg/d, stressed and non-stressed rats, vs vehicle treated controls): decreases sucrose intake in both stressed and non-stressed conditions
stress-induced decrease in chow intake and total kcals ([6]; rat amylin 300 μg/kg/d, treatment group vs control group): less pronounced in the treatment group

des-^1Lys^18Arg^25,28Pro-h-amylin (CNTATCATQRLANFLVRSSNNFGPILPSTNVGSNTY)
amylin activity in vivo [1]: show amylin activity in vivo

CC(C)CC(N(C)C)C1(c2ccc(Cl)cc2)CCC1 (stereo not drawn) [sibutramine]
change in body weight (vehicle-corrected) [3]: approximately 5%
fat mass [3]: Fat mass loss was also evident
lean (protein) mass [3]: relatively unchanged

^28Pro-h-amylin (KCNTATCATQRLANFLVHSSNNFGAILPSTNVGSNTY)
amylin activity in vivo [1]: show amylin activity in vivo
